In patent publication US20120237552A1, “Peptoid Agonists of Nerve Growth Factor and Their Use as Medicaments” (priority 2009, published 2012):
Entries after “also recorded” stand apart in the source; their conditions may differ.

Experiments:
PC12 cells = assay: PC12 cell differentiation (neurite outgrowth); assay type: cell-based, rat; conditions: 3 days, peptoids 2 ng/ml to 50 μg/ml, reduced serum (0.5% FBS and 1% HS); compared with NGF 100 ng/ml
Method: PC 12 cell differentiation was measured by plating cells onto collagen-coated 24-wells plates. NGF (100 ng/ml) or the small chemicals at different concentrations were added and the percentage of cells with neurite processes greater than two cell bodies in length were counted after relevant treatment. For each experiment at least 300 cells were randomly measured (Burstein and Greene, 1978).
PC12 cells were maintained at 37° C. in DMEM supplemented with 2.5% FBS, 15% of Horse serum (HS) and penicillin/streptomycin in a humidified 5% CO2 incubator. The cells were grown on 60- and 100-mm tissue culture dishes (Becton Dickinson).
PC 12 cells were cultured for 3 days in the presence of the peptoids (from 2 ng/ml to 50 μg/ml) under reduced serum conditions (0.5% FBS and 1% HS).

RN22 cells = assay: RN22 cell survival under CuSO4 stress (MTT); assay type: cell-based, rat; conditions: CuSO4 150 μM, 24 h, peptoids 1 ng/ml-10 μg/ml; compared with NGF 100 ng/ml
Method: The library was also tested to assess their capacity to promote cell survival of myelin producing cells. To delineate p75 signalling independent of TrkA, we used a rat schwannoma cell line (RN22) expressing p75, but not TrkA, (Gentry et al., 2000).
The rat schawnnoma cell line RN22 was cultured in 5% CO2 at 37° C. in Dulbecco's modified Eagle's medium (DMEM) with 10% fetal bovine serum (FBS) and penicillin/streptomycin.
RN22 cells were plated at 20,000 cells/well on a 24-well plate in DMEM alone and after allowing the cells to adhere for 3 days, cupper sulphate (CuSO4) (150 μM) was added with or without NGF (100 ng/ml) or the peptoids N35-4-8C, N6-4-17C and N35-4-17C at different concentrations (1 ng/ml-10 μg/ml) to generate stress and cell death. After 24 h cell viability was studied by determining the amount of yellow MTT (Sigma) that was reduced to insoluble purple formazan. After removing the medium, the water-insoluble formazan was solubilised with DMSO (Sigma), and the dissolved material was measured spectrophotometrically at a wavelength of 570 nm, subtracting the background at 650 nm (Frade, 2005).

C57BL/6 EAE mice = assay: Experimental autoimmune encephalomyelitis (EAE) clinical score; assay type: in vivo; conditions: daily intraperitoneal
Method: Trials were approved by the Parc Cientific de Barcelona Committee on Animal Care. Female C57BL/6 mice from Harlan (8-12 weeks old) were immunized subcutaneously in both hind pads with 300 μg of myelin oligodendrocyte glycoprotein (MOG) peptide 35-55 (Spikem, Firenze) emulsified with 50 μg of Mycobacterium tuberculosis (H37Ra strain; Difco, Detroit, Mich.) in incomplete Freund's adjuvant (IFA) as previously described (Adams et al. 2007). Mice were intraperitoneally injected with Pertussis toxin (Sigma)(500 ng) at the time of immunization and 2 days later. Animals were weighted and inspected for clinical signs of disease on a daily basis by a blinded observer. Disease severity of EAE was assessed according to the following scale: 0=normal; 0.5=mild limp tail; 1=limp tail; 2=mild parapesis of the hind limbs, unsteady gait; 3=moderate parapesis, voluntary movements still possible; 4=paraplegia or tetraparesis; 5=moribund state. Data shown for the clinical studies are representative of two independent experiments performed with the indicated number of animals (Moreno et al., 2006).
(§1) The agonist molecules selected for the animal studies, N35-4-8C, N6-4-17C and N35-4-17C, were prepared in water with 5% DMSO. Animals were treated with the agonist molecule (25, 50 and 100 mg/kg) or placebo (water+5% DMSO) through daily intraperitoneal injection starting after immunization. At the end of the study, mice were anesthetized and perfused intracardially with 4% of paraformaldehyde in 0.1M phosphate buffer (pH 7.6). Brains, spinal cords and spleens were dissected and either fixed or frozen until use. Serum was obtained from all animals included in the study, and transaminases levels were measured.
In order to evaluate the effects of the NGF-like peptoids “in vivo”, we studied the effect of the NGF-mimetic peptoids in the animal model of MS. C57BL/6 mice immunized with MOG35-55 peptide were treated daily with N35-4-8C, N6-4-17C and N35-4-17C intraperitoneally from day 0 to day 25 at a different concentrations of the compound. N35-4-8C was tested at 3 different concentrations selected in base to previous experiments using agonist molecules in animal models: 25 mg/kg, 50 mg/kg and 100 mg/kg. […] N35-4-17C was also tested at the same concentrations. […] Moreover, the treatment had higher clinical scores with a clear worsening in the progression of the disease (FIG. 4C).

[1] = Serum transaminases levels in treated EAE mice; assay type: in vivo; conditions: daily intraperitoneal treatment, N35-4-17C at the higher concentrations
Method: as §1

TrkA = target: T1, TrkA (Rattus norvegicus, UniProt P35739); assay: TrkA phosphorylation in PC12 cells (western blot); assay type: cell-based; conditions: 100 ng/ml, time course
T1 construct: we analyzed their capacity to induce TrkA phosphorylation in PC12 cells; endogenous in cells; host or cells: PC12 cells
T1 sequence (P35739 33-799): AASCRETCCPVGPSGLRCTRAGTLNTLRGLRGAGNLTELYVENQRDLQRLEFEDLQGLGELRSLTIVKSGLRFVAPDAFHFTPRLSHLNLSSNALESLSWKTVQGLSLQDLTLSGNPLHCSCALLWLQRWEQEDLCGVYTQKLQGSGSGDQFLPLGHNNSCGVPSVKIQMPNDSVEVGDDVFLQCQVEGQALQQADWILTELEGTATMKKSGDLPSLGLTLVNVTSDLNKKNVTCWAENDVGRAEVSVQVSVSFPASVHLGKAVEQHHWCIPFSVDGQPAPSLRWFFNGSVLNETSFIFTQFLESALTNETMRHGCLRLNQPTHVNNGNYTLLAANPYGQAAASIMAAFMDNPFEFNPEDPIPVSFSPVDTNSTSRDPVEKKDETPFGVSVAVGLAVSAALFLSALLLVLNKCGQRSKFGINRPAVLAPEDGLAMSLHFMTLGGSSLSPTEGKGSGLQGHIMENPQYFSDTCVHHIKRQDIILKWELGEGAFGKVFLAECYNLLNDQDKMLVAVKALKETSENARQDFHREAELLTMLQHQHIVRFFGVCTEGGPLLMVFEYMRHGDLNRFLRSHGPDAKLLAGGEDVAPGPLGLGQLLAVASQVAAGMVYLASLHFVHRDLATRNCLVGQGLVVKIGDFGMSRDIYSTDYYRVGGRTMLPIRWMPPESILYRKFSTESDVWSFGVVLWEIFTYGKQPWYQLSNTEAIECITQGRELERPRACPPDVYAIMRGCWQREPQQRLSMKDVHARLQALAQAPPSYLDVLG
Method: Activation of TrkA is the first event in the signalling cascade leading to differentiation and survival of NGF responsive neurons and PC12 cells (Greene and Tischler, 1976; Chao, 2003; Huang and Reichardt, 2003). To evaluate whether the neurotrophic activity of NGF-like peptoids was mediated by the interaction with TrkA receptor, we analyzed their capacity to induce TrkA phosphorylation in PC12 cells. The activity of peptoids was tested in the range of concentrations that were effective on PC12 cells differentiation.
Western Blot Analysis. Subconfluent cells were grown overnight in medium containing 2% FBS and 1% HS and stimulated with 100 ng/ml NGF or the NGF-like small chemicals for the indicated time points. Cells were then washed with cold phosphate-buffered saline (PBS) and briefly sonicated in SDS sample buffer (containing β-mercaptoethanol and 2 mM PMSF). Lysates (200 μg of total proteins) were separated on SDS-PAGE, and transferred to nitrocellulose (Whatman, Dassel, Germany). […]

IκBα = IκBα phosphorylation / NF-κB pathway activation in PC12 and RN22 cells (western blot); assay type: cell-based, rat; conditions: 100 ng/ml
Method: (§2) Western Blot Analysis. Subconfluent cells were grown overnight in medium containing 2% FBS and 1% HS and stimulated with 100 ng/ml NGF or the NGF-like small chemicals for the indicated time points. Cells were then washed with cold phosphate-buffered saline (PBS) and briefly sonicated in SDS sample buffer (containing β-mercaptoethanol and 2 mM PMSF). Lysates (200 μg of total proteins) were separated on SDS-PAGE, and transferred to nitrocellulose (Whatman, Dassel, Germany). After blocking with 5% nonfat milk in TBST buffer (10 mM Tris pH 7.5; 150 mM NaCl/0.2% Tween 20), blots were probed overnight at 4° C. with anti-p-TrkA (Tyr 490) antibody (1:1000), anti TrkA antibody (1:1000), anti-p-IκBα (Ser 32/36)(5A5) mouse antibody (1/1000), anti IκBα (L35A5) mouse antibody (1:1000), anti-p-SAPK/JNK (Thr183/Tyr185) antibody (1:1000) or anti-SAPK/JNK antibody (1/1000)(all of them from Cell Signaling), followed by incubation with HRP-conjugated IgG (Jackson ImmunoResearch) for 1 h at room temperature (RT). Detection of phosphorylated species was performed by using the enhanced chemiluminescence (ECL) system (GE Healthcare Bio-Sciences, Piscataway, N.J.).
To investigate whether our NGF-like small chemicals activate p75 we analyzed the activation of the NF-κB pathway (Bonizzi G, Karin M. 2004) and the SAPK/JNK pathway (cell death) in PC12 and RN22 cell lines. […]

SAPK/JNK = SAPK/JNK phosphorylation in RN22 cells (western blot); assay type: cell-based, rat; conditions: 100 ng/ml
Method: as §2
In several neuronal systems, JNK activation has been causally linked with the induction of programmed cell death (Bhakar et al., 2003). […]

| Molecule | differentiation of PC12 cells (PC12 cells) | survival of RN22 cells (cell viability, MTT) (RN22 cells) | EAE clinical severity (C57BL/6 EAE mice; any of the concentrations tested (25, 50, 100 mg/kg), 26 days observation) | transaminases levels in serum [1] | EAE clinical severity (C57BL/6 EAE mice; 25 mg/kg, day 0 to day 25) | EAE clinical symptoms (C57BL/6 EAE mice; higher concentrations (50 and 100 mg/kg)) | time of maximal TrkA phosphorylation (TrkA) [min] | time after addition at which p-IκBα levels were increased (IκBα) [min] | activation of the JNK pathway (phosphorylation of SAPK/JNK) (SAPK/JNK) |
| --- | --- | --- | --- | --- | --- | --- | --- | --- | --- |
| CC(C)CCN(CC(=O)N(CCc1ccc(S(N)(=O)=O)cc1)CC(N)=O)C(=O)CNCCN1CCCC1 [N6-4-17C, [N-(2-(1-Pyrrolidinyl)ethyl)glycyl]-[N-(3-methylbutyl)glycyl]-N-[2-(4′-sulfamoylphenyl)ethyl]glycinamide] | induce the differentiation of PC12 cells at different concentrations to an extent substantially comparable with that induce by NGF | promote survival of RN22 cells | not effective in reducing the clinical severity of EAE; also recorded: no effects in EAE | elevated transaminases levels |  |  |  |  |  |
| CC(C)CCN(CC(=O)N(CCc1ccc(S(N)(=O)=O)cc1)CC(N)=O)C(=O)CNCCc1ccccc1F [N35-4-17C, [N-(2-(2′-Fluorophenyl)ethyl)glycyl]-[N-(3-methylbutyl)glycyl]-N-[2-(4′-sulfamoylphenyl)ethyl]glycinamide] | induce the differentiation of PC12 cells at different concentrations to an extent substantially comparable with that induce by NGF | promote survival of RN22 cells |  | elevated transaminase levels | prevents significantly the development of clinical symptoms in EAE | toxic effect worsening the development of the clinical symptoms |  |  |  |
| NGF: homodimeric protein from the neurotrophin family; used as positive control at 100 ng/ml |  |  |  |  |  |  | 30 | ≤ 5 | obvious |
